# Test results from US20100316529A1, “Anti-Microbial Systems and Methods” (priority 2001, published 2010).
# “And” between values parts separate entries of the source, which are not always exact repeats. Identical values can stand only once.
# Tests used:
# Assay in all cases: EDTA salt dilution test, MIC/MBC
# Type in all cases: cell-based
# E. coli = conditions: three entries; for MBC, minimum concentration required to kill an entire population: Exhibit A1
# Procedure: (§1) Protocol one: Broth dilutions:
# (§2) Inoculate a 25 ml nutrient broth (Oxoid No2) in a sterile universal container with one of the following organisms; Pseudomonas aeruginosa, Proteus Mirabilis, E. coli, Klebsiella pneumoniae, Staph aureus, Coagulase negative staphylococci, Enterococcus faecalis or MRSA.
# (§3) Incubate the broth at 37° C. overnight.
# (§4) To make these concentrations put the EDTA needed for 10 mLs in only 9 mLs of broth in sterile universal containers, as this will be diluted further when the organisms are added.
# (§5) Dilute the overnight broth cultures to 10^7 organisms/mL using more sterile nutrient broth.
# (§6) Add 1 mL of this diluent to each of the EDTA series broths. This gives a final concentration of 10^6 organism/mL in the EDTA broths.
# (§7) Incubate for 18 hours at 37° C.
# (§8) Next day visually read the MIC's by observing the turbidity of the broths.
# (§9) Plate out 1 uL of each dilution onto fresh blood agar plate and spread using a sterile plastic spreader.
# (§10) Incubate overnight at 37° C.
# (§11) Next day read the MBC's by performing colony counts.
# Ent. faecalis = conditions: for MBC, minimum concentration required to kill an entire population: Exhibit A1; for MIC, minimum concentration required to inhibit growth: Exhibit A2
# Procedure: as §1, §2, §3, §4, §5, §6, §7, §8, §9, §10, §11
# Kleb. pnemoniae = conditions: two entries; for MBC, minimum concentration required to kill an entire population: Exhibit A1; for MIC, minimum concentration required to inhibit growth: Exhibit A2
# Procedure: as §1, §2, §3, §4, §5, §6, §7, §8, §9, §10, §11
# MRSA = conditions: five entries; for MBC, minimum concentration required to kill an entire population: Exhibit A1; for MIC, minimum concentration required to inhibit growth: Exhibit A2
# Procedure: as §1, §2, §3, §4, §5, §6, §7, §8, §9, §10, §11
# Proteus mirabilis = conditions: two entries; for MBC, minimum concentration required to kill an entire population: Exhibit A1; for MIC, minimum concentration required to inhibit growth: Exhibit A2
# Procedure: as §1, §2, §3, §4, §5, §6, §7, §8, §9, §10, §11
# Pseudomonas aeruginosa = conditions: two entries; for MBC, minimum concentration required to kill an entire population: Exhibit A1; for MIC, minimum concentration required to inhibit growth: Exhibit A2
# Procedure: as §1, §2, §3, §4, §5, §6, §7, §8, §9, §10, §11
# Pseudomonas sp. = conditions: for MBC, minimum concentration required to kill an entire population: Exhibit A1; for MIC, minimum concentration required to inhibit growth: Exhibit A2
# Procedure: as §1, §2, §3, §4, §5, §6, §7, §8, §9, §10, §11
# S. aureus = conditions: five entries; for MBC, minimum concentration required to kill an entire population: Exhibit A1; for MIC, minimum concentration required to inhibit growth: Exhibit A2
# Procedure: as §1, §2, §3, §4, §5, §6, §7, §8, §9, §10, §11
# S. capitis = conditions: two entries; for MBC, minimum concentration required to kill an entire population: Exhibit A1
# Procedure: as §1, §2, §3, §4, §5, §6, §7, §8, §9, §10, §11
# S. epidermidis = conditions: two entries; for MBC, minimum concentration required to kill an entire population: Exhibit A1; for MIC, minimum concentration required to inhibit growth: Exhibit A2
# Procedure: as §1, §2, §3, §4, §5, §6, §7, §8, §9, §10, §11
# S. lentus = conditions: for MBC, minimum concentration required to kill an entire population: Exhibit A1; for MIC, minimum concentration required to inhibit growth: Exhibit A2
# Procedure: as §1, §2, §3, §4, §5, §6, §7, §8, §9, §10, §11
# S. simulans = conditions: for MBC, minimum concentration required to kill an entire population: Exhibit A1; for MIC, minimum concentration required to inhibit growth: Exhibit A2
# Procedure: as §1, §2, §3, §4, §5, §6, §7, §8, §9, §10, §11
# S. xylosus = conditions: for MBC, minimum concentration required to kill an entire population: Exhibit A1; for MIC, minimum concentration required to inhibit growth: Exhibit A2
# Procedure: as §1, §2, §3, §4, §5, §6, §7, §8, §9, §10, §11
# VRE = conditions: two entries
# Procedure: as §1, §2, §3, §4, §5, §6, §7, §8, §9, §10, §11
# Ent. faeculm = conditions: for MIC, minimum concentration required to inhibit growth: Ent. faecuim, Exhibit A2; for MBC, minimum concentration required to kill an entire population: Ent. faeculm, Exhibit A1
# Kleb. oxytoca = conditions: for MBC, minimum concentration required to kill an entire population: Exhibit A1; for MIC, minimum concentration required to inhibit growth: Exhibit A2
# Kleb. ornitholytica = conditions: for MBC, minimum concentration required to kill an entire population: Exhibit A1; for MIC, minimum concentration required to inhibit growth: Exhibit A2
# Ent. cloacae = conditions: three entries
# Steno. maltophilia = conditions: for MBC, minimum concentration required to kill an entire population: Exhibit A1; for MIC, minimum concentration required to inhibit growth: Exhibit A2
# Cornyeform amycolatum = conditions: for MBC, minimum concentration required to kill an entire population: Exhibit A1
# Coryneform strait/amy = conditions: for MBC, minimum concentration required to kill an entire population: Exhibit A1; for MIC, minimum concentration required to inhibit growth: Exhibit A2
# Proteus vulgaris = conditions: for MBC, minimum concentration required to kill an entire population: Exhibit A1; for MIC, minimum concentration required to inhibit growth: Exhibit A2
structure (smiles),measurement,setting,value
O=C([O-])CN(CCN(CC(=O)[O-])CC(=O)[O-])CC(=O)[O-].[Mg+2].[Na+].[Na+] [Magnesium disodium EDTA],"MBC, minimum concentration required to kill an entire population",E. coli,>30 mg/mL
same,"MIC, minimum concentration required to inhibit growth",E. coli; Exhibit A2,>30 mg/mL
same,"MBC, minimum concentration required to kill an entire population",Ent. faecalis,>30 mg/mL
same,"MIC, minimum concentration required to inhibit growth",Ent. faecalis,>30 mg/mL
same,"MBC, minimum concentration required to kill an entire population",Kleb. pnemoniae,>30 mg/mL
same,"MIC, minimum concentration required to inhibit growth",Kleb. pnemoniae,>30 mg/mL
same,"MBC, minimum concentration required to kill an entire population",MRSA,>30 mg/mL
same,"MIC, minimum concentration required to inhibit growth",MRSA,>30 mg/mL
same,"MBC, minimum concentration required to kill an entire population",Proteus mirabilis,>30 mg/mL
same,"MIC, minimum concentration required to inhibit growth",Proteus mirabilis,>30 mg/mL
same,"MBC, minimum concentration required to kill an entire population",Pseudomonas aeruginosa,>30 mg/mL
same,"MIC, minimum concentration required to inhibit growth",Pseudomonas aeruginosa,>30 mg/mL
same,"MBC, minimum concentration required to kill an entire population",Pseudomonas sp.,>30 mg/mL
same,"MIC, minimum concentration required to inhibit growth",Pseudomonas sp.,>30 mg/mL
same,"MBC, minimum concentration required to kill an entire population",S. aureus,>30 mg/mL
same,"MIC, minimum concentration required to inhibit growth",S. aureus,>30 mg/mL
same,"MBC, minimum concentration required to kill an entire population",S. capitis,>30 mg/mL
same,"MBC, minimum concentration required to kill an entire population",S. epidermidis,30 mg/mL
same,"MIC, minimum concentration required to inhibit growth",S. epidermidis,6 mg/mL
same,"MBC, minimum concentration required to kill an entire population",S. lentus,>30 mg/mL
same,"MIC, minimum concentration required to inhibit growth",S. lentus,6 mg/mL
same,"MBC, minimum concentration required to kill an entire population",S. simulans,>30 mg/mL
same,"MIC, minimum concentration required to inhibit growth",S. simulans,1.5 mg/mL
same,"MBC, minimum concentration required to kill an entire population",S. xylosus,>30 mg/mL
same,"MIC, minimum concentration required to inhibit growth",S. xylosus,2 mg/mL
same,"MBC, minimum concentration required to kill an entire population",VRE; Exhibit A1,>30 mg/mL
same,"MIC, minimum concentration required to inhibit growth",VRE; Exhibit A2,25 mg/mL and >30 mg/mL
same,"MIC, minimum concentration required to inhibit growth",Ent. faeculm,1.5 mg/mL
same,"MBC, minimum concentration required to kill an entire population",Ent. faeculm,>30 mg/mL
same,"MBC, minimum concentration required to kill an entire population",Kleb. oxytoca,>30 mg/mL
same,"MIC, minimum concentration required to inhibit growth",Kleb. oxytoca,>30 mg/mL
same,"MBC, minimum concentration required to kill an entire population",Kleb. ornitholytica,>30 mg/mL
same,"MIC, minimum concentration required to inhibit growth",Kleb. ornitholytica,>30 mg/mL
same,"MBC, minimum concentration required to kill an entire population",Ent. cloacae; Exhibit A1,>30 mg/mL
same,"MIC, minimum concentration required to inhibit growth",Ent. cloacae; Exhibit A2,>30 mg/mL
same,"MBC, minimum concentration required to kill an entire population",Steno. maltophilia,>30 mg/mL
same,"MIC, minimum concentration required to inhibit growth",Steno. maltophilia,>30 mg/mL
same,"MBC, minimum concentration required to kill an entire population",Cornyeform amycolatum,4 mg/mL
same,"MIC, minimum concentration required to inhibit growth",Cornyeform amycolatum; Exhibit A2,<0.5 mg/mL
same,"MBC, minimum concentration required to kill an entire population",Coryneform strait/amy,4 mg/mL
same,"MIC, minimum concentration required to inhibit growth",Coryneform strait/amy,<0.5 mg/mL
same,"MBC, minimum concentration required to kill an entire population",Proteus vulgaris,.30 mg/mL
same,"MIC, minimum concentration required to inhibit growth",Proteus vulgaris,>30 mg/mL
O=C([O-])CN(CCN(CC(=O)[O-])CC(=O)[O-])CC(=O)[O-].[Cu+2].[Na+].[Na+] [Cupric disodium EDTA],"MBC, minimum concentration required to kill an entire population",E. coli,>30 mg/mL
same,"MBC, minimum concentration required to kill an entire population",Ent. faecalis,<0.5 mg/mL
same,"MIC, minimum concentration required to inhibit growth",Ent. faecalis,<0.5 mg/mL
same,"MBC, minimum concentration required to kill an entire population",Kleb. pnemoniae,>30 mg/mL
same,"MIC, minimum concentration required to inhibit growth",Kleb. pnemoniae,>30 mg/mL
same,"MBC, minimum concentration required to kill an entire population",MRSA,<0.5 mg/mL
same,"MIC, minimum concentration required to inhibit growth",MRSA,<0.5 mg/mL
same,"MBC, minimum concentration required to kill an entire population",Proteus mirabilis,>30 mg/mL
same,"MIC, minimum concentration required to inhibit growth",Proteus mirabilis,6 mg/mL
same,"MBC, minimum concentration required to kill an entire population",Pseudomonas aeruginosa,>30 mg/mL
same,"MIC, minimum concentration required to inhibit growth",Pseudomonas aeruginosa,>30 mg/mL
same,"MBC, minimum concentration required to kill an entire population",Pseudomonas sp.,>30 mg/mL
same,"MIC, minimum concentration required to inhibit growth",Pseudomonas sp.,>30 mg/mL
same,"MBC, minimum concentration required to kill an entire population",S. aureus,<0.5 mg/mL
same,"MIC, minimum concentration required to inhibit growth",S. aureus,<0.5 mg/mL
same,"MBC, minimum concentration required to kill an entire population",S. capitis,<0.5 mg/mL
same,"MIC, minimum concentration required to inhibit growth",S. capitis; Exhibit A2,<0.5 mg/mL
same,"MBC, minimum concentration required to kill an entire population",S. epidermidis,<0.5 mg/mL
same,"MIC, minimum concentration required to inhibit growth",S. epidermidis,<0.5 mg/mL
same,"MBC, minimum concentration required to kill an entire population",S. lentus,<0.5 mg/mL
same,"MIC, minimum concentration required to inhibit growth",S. lentus,<0.5 mg/mL
same,"MBC, minimum concentration required to kill an entire population",S. simulans,<0.5 mg/mL
same,"MIC, minimum concentration required to inhibit growth",S. simulans,<0.5 mg/mL
same,"MBC, minimum concentration required to kill an entire population",S. xylosus,<0.5 mg/mL
same,"MIC, minimum concentration required to inhibit growth",S. xylosus,<0.5 mg/mL
same,"MIC, minimum concentration required to inhibit growth",Ent. faeculm,<0.5 mg/mL
same,"MBC, minimum concentration required to kill an entire population",Ent. faeculm,<0.5 mg/mL
same,"MBC, minimum concentration required to kill an entire population",Kleb. oxytoca,>30 mg/mL
same,"MIC, minimum concentration required to inhibit growth",Kleb. oxytoca,>30 mg/mL
same,"MBC, minimum concentration required to kill an entire population",Kleb. ornitholytica,>30 mg/mL
same,"MIC, minimum concentration required to inhibit growth",Kleb. ornitholytica,>30 mg/mL
same,"MBC, minimum concentration required to kill an entire population",Steno. maltophilia,>30 mg/mL
same,"MIC, minimum concentration required to inhibit growth",Steno. maltophilia,6 mg/mL
same,"MBC, minimum concentration required to kill an entire population",Cornyeform amycolatum,<0.5 mg/mL
same,"MBC, minimum concentration required to kill an entire population",Coryneform strait/amy,<0.5 mg/mL
same,"MIC, minimum concentration required to inhibit growth",Coryneform strait/amy,<0.5 mg/mL
same,"MBC, minimum concentration required to kill an entire population",Proteus vulgaris,>30 mg/mL
same,"MIC, minimum concentration required to inhibit growth",Proteus vulgaris,>30 mg/mL
